PubChem BioAssay AID248 (DTP/NCI, 2004)
Values joined by “and” are separate entries in the source; they are usually repeats but may differ in a detail not shown here. Equal values may be shown once. Toxic doses and inconclusive results are not listed.

System: L1210 leukemia ip in BDF1 mice, survival T/C
Test: NCI In Vivo Anticancer Drug Screen. Data for tumor model L1210 Leukemia (intraperitoneal) in B6D2F1 (BDF1) mice
Conditions: endpoint: mean survival time, higher = longer survival
In short: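 Transplanted-tumor mice were given test agent; controls received vehicle only. Survival readings from the two groups were divided (treated over control).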

[1] = dose: 100.0 mg/kg/injection, schedule: Q01DX001 (ip), vehicle: saline
[2] = dose: 100.0 mg/kg/injection, schedule: Q01DX009 (ip), vehicle: Klucel (hydroxypropylcellulose) (HPC)
[3] = dose: 200.0 mg/kg/injection, schedule: Q01DX001 (ip), vehicle: saline
[4] = dose: 200.0 mg/kg/injection, schedule: Q01DX009 (ip), vehicle: Klucel (hydroxypropylcellulose) (HPC)
[5] = dose: 400.0 mg/kg/injection, schedule: Q01DX001 (ip), vehicle: saline
[6] = dose: 400.0 mg/kg/injection, schedule: Q01DX009 (ip), vehicle: Klucel (hydroxypropylcellulose) (HPC)
[7] = dose: 100.0 mg/kg/injection, schedule: Q04DX003 (ip), vehicle: Klucel (hydroxypropylcellulose) (HPC)
[8] = dose: 200.0 mg/kg/injection, schedule: Q04DX003 (ip), vehicle: Klucel (hydroxypropylcellulose) (HPC)
[9] = dose: 400.0 mg/kg/injection, schedule: Q04DX003 (ip), vehicle: Klucel (hydroxypropylcellulose) (HPC)
[10] = dose: 100.0 mg/kg/injection, schedule: Q04DX003 (ip), vehicle: saline with Tween-80

Cc1c(O)ccc(=O)n1O
T/C (dose: 10.4 mg/kg/injection, schedule: Q03HX024 (ip), vehicle: Klucel (hydroxypropylcellulose) (HPC)): 97 % of control
T/C (dose: 12.0 mg/kg/injection, schedule: Q01DX009 (ip), vehicle: Klucel (hydroxypropylcellulose) (HPC)): 107 % of control
T/C (dose: 15.6 mg/kg/injection, schedule: Q03HX024 (ip), vehicle: Klucel (hydroxypropylcellulose) (HPC)): 96 % of control
T/C (dose: 22.8 mg/kg/injection, schedule: Q03HX024 (ip), vehicle: Klucel (hydroxypropylcellulose) (HPC)): 93 % of control
T/C (dose: 24.0 mg/kg/injection, schedule: Q01DX009 (ip), vehicle: Klucel (hydroxypropylcellulose) (HPC)): 102 % of control
T/C (dose: 34.8 mg/kg/injection, schedule: Q03HX024 (ip), vehicle: Klucel (hydroxypropylcellulose) (HPC)): 98 % of control
T/C (dose: 48.0 mg/kg/injection, schedule: Q01DX009 (ip), vehicle: Klucel (hydroxypropylcellulose) (HPC)): 107 % of control
T/C (dose: 49.0 mg/kg/injection, schedule: Q01DX Z (ip), vehicle: carboxymethylcellulose (CMC)): 109 % of control
T/C (dose: 49.0 mg/kg/injection, schedule: Q01DX Z (ip), vehicle: methylcellulose (MC)): 100 % of control and 110 % of control
T/C (dose: 52.0 mg/kg/injection, schedule: Q01DX009 (ip), vehicle: Klucel (hydroxypropylcellulose) (HPC)): 103 % of control
T/C (dose: 52.0 mg/kg/injection, schedule: Q03HX024 (ip), vehicle: Klucel (hydroxypropylcellulose) (HPC)): 100 % of control and 105 % of control
T/C (dose: 62.0 mg/kg/injection, schedule: Q03HX024 (ip), vehicle: saline with Tween-80): 92 % of control
T/C (dose: 73.0 mg/kg/injection, schedule: Q01DX Z (ip), vehicle: carboxymethylcellulose (CMC)): 111 % of control
T/C (dose: 73.0 mg/kg/injection, schedule: Q01DX Z (ip), vehicle: methylcellulose (MC)): 93 % of control
T/C (dose: 89.0 mg/kg/injection, schedule: Q01DX001 (ip), vehicle: carboxymethylcellulose (CMC)): 106 % of control
T/C (dose: 96.0 mg/kg/injection, schedule: Q03HX024 (ip), vehicle: Klucel (hydroxypropylcellulose) (HPC)): 100 % of control
T/C (dose: 100.0 mg/kg/injection, schedule: Q01DX001 (ip), vehicle: carboxymethylcellulose (CMC)): 113 % of control
T/C [1]: 112 % of control
T/C [2]: 115 % of control
T/C (dose: 100.0 mg/kg/injection, schedule: Q04DX003 (ip), vehicle: acetone): 108 % of control
T/C (dose: 104.0 mg/kg/injection, schedule: Q01DX001 (ip), vehicle: Klucel (hydroxypropylcellulose) (HPC)): 103 % of control
T/C (dose: 104.0 mg/kg/injection, schedule: Q04DX003 (ip), vehicle: Klucel (hydroxypropylcellulose) (HPC)): 95 % of control
T/C (dose: 110.0 mg/kg/injection, schedule: Q01DX Z (ip), vehicle: carboxymethylcellulose (CMC)): 151 % of control
T/C (dose: 110.0 mg/kg/injection, schedule: Q01DX Z (ip), vehicle: methylcellulose (MC)): 94 % of control
T/C (dose: 110.0 mg/kg/injection, schedule: Q01DX Z (ip), vehicle: saline): 102 % of control
T/C (dose: 125.0 mg/kg/injection, schedule: Q03HX024 (ip), vehicle: saline with Tween-80): 102 % of control
T/C (dose: 156.0 mg/kg/injection, schedule: Q01DX001 (ip), vehicle: Klucel (hydroxypropylcellulose) (HPC)): 97 % of control
T/C (dose: 156.0 mg/kg/injection, schedule: Q04DX003 (ip), vehicle: Klucel (hydroxypropylcellulose) (HPC)): 103 % of control
T/C (dose: 165.0 mg/kg/injection, schedule: Q01DX Z (ip), vehicle: carboxymethylcellulose (CMC)): 152 % of control
T/C (dose: 165.0 mg/kg/injection, schedule: Q01DX Z (ip), vehicle: methylcellulose (MC)): 122 % of control
T/C (dose: 165.0 mg/kg/injection, schedule: Q01DX Z (ip), vehicle: saline): 104 % of control
T/C (dose: 200.0 mg/kg/injection, schedule: Q01DX001 (ip), vehicle: carboxymethylcellulose (CMC)): 112 % of control
T/C [3]: 107 % of control
T/C [4]: 108 % of control
T/C (dose: 200.0 mg/kg/injection, schedule: Q04DX003 (ip), vehicle: acetone): 107 % of control
T/C (dose: 228.0 mg/kg/injection, schedule: Q01DX001 (ip), vehicle: Klucel (hydroxypropylcellulose) (HPC)): 101 % of control
T/C (dose: 228.0 mg/kg/injection, schedule: Q04DX003 (ip), vehicle: Klucel (hydroxypropylcellulose) (HPC)): 98 % of control
T/C (dose: 300.0 mg/kg/injection, schedule: Q01DX001 (ip), vehicle: carboxymethylcellulose (CMC)): 112 % of control
T/C (dose: 348.0 mg/kg/injection, schedule: Q01DX001 (ip), vehicle: Klucel (hydroxypropylcellulose) (HPC)): 108 % of control
T/C (dose: 348.0 mg/kg/injection, schedule: Q04DX003 (ip), vehicle: Klucel (hydroxypropylcellulose) (HPC)): 104 % of control
T/C (dose: 400.0 mg/kg/injection, schedule: Q01DX001 (ip), vehicle: carboxymethylcellulose (CMC)): 111 % of control
T/C [5]: 104 % of control
T/C [6]: 104 % of control
T/C (dose: 400.0 mg/kg/injection, schedule: Q04DX003 (ip), vehicle: acetone): 103 % of control
T/C (dose: 520.0 mg/kg/injection, schedule: Q01DX001 (ip), vehicle: Klucel (hydroxypropylcellulose) (HPC)): 106 % of control

BrCCOC1CCCCO1 (centres undefined)
T/C (dose: 25.0 mg/kg/injection, schedule: Q01DX005 (ip), vehicle: saline): 105 % of control
T/C (dose: 50.0 mg/kg/injection, schedule: Q01DX005 (ip), vehicle: saline): 117 % of control
T/C (dose: 100.0 mg/kg/injection, schedule: Q01DX005 (ip), vehicle: saline): 107 % of control
T/C (dose: 200.0 mg/kg/injection, schedule: Q01DX005 (ip), vehicle: saline): 105 % of control

C(=N\Nc1ccc2ccccc2n1)/c1ccccn1
T/C (dose: 9.5 mg/kg/injection, schedule: Q01DX001 (ip), vehicle: other): 94 % of control
T/C (dose: 19.0 mg/kg/injection, schedule: Q01DX001 (ip), vehicle: other): 103 % of control
T/C (dose: 38.0 mg/kg/injection, schedule: Q01DX001 (ip), vehicle: other): 94 % of control
T/C (dose: 75.0 mg/kg/injection, schedule: Q01DX001 (ip), vehicle: other): 108 % of control

CCOc1ccc(NC(=O)OCCOc2ccccc2)cc1
T/C [2]: 104 % of control
T/C [4]: 100 % of control
T/C [6]: 94 % of control

CS(=O)(=O)c1cccc(N)c1
T/C [1]: 102 % of control
T/C [3]: 91 % of control
T/C [5]: 98 % of control

CC(C)(C)c1cc(-c2cc(C(C)(C)C)c(O)c(C(C)(C)C)c2)cc(C(C)(C)C)c1O
T/C [7]: 104 % of control
T/C [8]: 107 % of control
T/C [9]: 98 % of control

CCCP(=S)(CCC)N(C)C
T/C [10]: 101 % of control
T/C (dose: 200.0 mg/kg/injection, schedule: Q04DX003 (ip), vehicle: saline with Tween-80): 104 % of control

O=C(CS(=O)(=O)Cc1ccccc1)c1ccccc1
T/C [7]: 98 % of control
T/C [8]: 98 % of control
T/C [9]: 101 % of control

O=c1[n-]cc(F)c(=O)[nH]1.O=c1[n-]cc(F)c(=O)[nH]1.[NH2-].[NH2-].[Pt+4]
T/C (dose: 6.25 mg/kg/injection, schedule: Q03HX024 (ip), vehicle: saline with Tween-80): 97 % of control
T/C (dose: 12.5 mg/kg/injection, schedule: Q03HX024 (ip), vehicle: saline with Tween-80): 101 % of control
T/C (dose: 25.0 mg/kg/injection, schedule: Q03HX024 (ip), vehicle: saline with Tween-80): 99 % of control
T/C (dose: 50.0 mg/kg/injection, schedule: Q03HX024 (ip), vehicle: saline with Tween-80): 118 % of control
T/C (dose: 100.0 mg/kg/injection, schedule: Q01DX009 (ip), vehicle: saline): 115 % of control and 105 % of control
T/C (dose: 100.0 mg/kg/injection, schedule: Q04DX003 (ip), vehicle: saline): 108 % of control and 92 % of control and 97 % of control
T/C (dose: 200.0 mg/kg/injection, schedule: Q01DX009 (ip), vehicle: saline): 124 % of control and 114 % of control
T/C (dose: 200.0 mg/kg/injection, schedule: Q04DX003 (ip), vehicle: saline): 93 % of control and 113 % of control and 97 % of control
T/C (dose: 400.0 mg/kg/injection, schedule: Q01DX009 (ip), vehicle: saline): 109 % of control
T/C (dose: 400.0 mg/kg/injection, schedule: Q04DX003 (ip), vehicle: saline): 120 % of control and 124 % of control and 101 % of control

CC1=C(C)CS(=O)(=O)C1
T/C (dose: 25.0 mg/kg/injection, schedule: Q04DX003 (ip), vehicle: saline with Tween-80): 95 % of control
T/C (dose: 50.0 mg/kg/injection, schedule: Q04DX003 (ip), vehicle: saline with Tween-80): 101 % of control
T/C [10]: 102 % of control

CN(C)Cc1cccc2ccccc12
T/C (dose: 50.0 mg/kg/injection, schedule: Q01DX009 (ip), vehicle: Klucel (hydroxypropylcellulose) (HPC)): 95 % of control

Cc1cc(=O)cc(C)[nH]1
T/C [1]: 90 % of control
T/C [3]: 94 % of control
T/C [5]: 92 % of control
